In PubChem BioAssay (NCI):
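Test compounds were applied to cells in 96-well plates for 48 hours at 5 doses. GI50 marks 50% less growth. TGI denotes the concentration required for complete inhibition of growth.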

How the values were obtained:
Experiment in all cases: DTP human tumour cell line panel, 48 h
[1] = tested on: SNB-19 CNS
[2] = tested on: HCC-2998 colon
[3] = tested on: COLO 205 colon
[4] = tested on: HOP-62 NSCLC
[5] = tested on: NCI-H522 lung
[6] = tested on: NCI-H460 lung
[7] = tested on: SN12C renal
[8] = tested on: CCRF-CEM leukemia
[9] = tested on: DMS 114 small cell lung
[10] = tested on: DLD-1 colon
[11] = tested on: UO-31 renal
[12] = tested on: UACC-257 melanoma

## COc1cc2cc(C(=O)N3C[C@H](CCl)c4c3cc(N)c3ccccc43)[nH]c2c(OC)c1OC
[1]
  GI50: 0.0252 µM
  TGI: 1.24 µM
[2]
  GI50: < 0.005 µM
  TGI: < 0.005 µM
[3]
  GI50: < 0.005 µM
  TGI: < 0.005 µM
[4]
  GI50: 0.005 µM
  TGI: 0.112 µM
[5]
  GI50: < 0.005 µM
  TGI: < 0.005 µM
[6]
  GI50: 0.005 µM
  TGI: 0.0067 µM
[7]
  GI50: 0.00698 µM
  TGI: 0.0582 µM
[8]
  GI50: 0.005 µM
  TGI: > 50 µM

## CCCCOc1ccc(OCCCCCCCCCC[N+](C)(C)C)cc1
[1]
  TGI: 23.3 µM
[2]
  TGI: 6.28 µM
[9]
  TGI: 6.75 µM
[3]
  TGI: 2.68 µM
[4]
  TGI: 13.7 µM
[5]
  TGI: 5.22 µM
[10]
  TGI: 21.5 µM
[6]
  TGI: 12.7 µM
[11]
  TGI: 23 µM
[7]
  TGI: 12.2 µM
[8]
  TGI: 3.87 µM
[12]
  TGI: 17.8 µM

## CN(C)CCNC(=O)c1cc(Cl)cc2ccc(-c3ccccc3)nc12
[1]
  TGI: 18.8 µM
[2]
  TGI: 13.8 µM
[9]
  TGI: 12.6 µM
[3]
  TGI: 4.28 µM
[4]
  TGI: 10.3 µM
[5]
  TGI: 16 µM
[10]
  TGI: 12.9 µM
[6]
  TGI: 7.09 µM
[11]
  TGI: 4.76 µM
[7]
  TGI: 12.9 µM
[8]
  TGI: 6.01 µM
[12]
  TGI: 10.8 µM

## CSc1cc(=O)n2c3ccccc3c3ccnc1c32
[1]
  TGI: > 100 µM
[2]
  TGI: > 100 µM
[9]
  TGI: > 100 µM
[3]
  TGI: > 100 µM
[4]
  TGI: > 100 µM
[5]
  TGI: > 100 µM
[10]
  TGI: > 100 µM
[6]
  TGI: > 100 µM
[11]
  TGI: > 100 µM
[7]
  TGI: > 100 µM
[8]
  TGI: > 100 µM
[12]
  TGI: > 100 µM

## O=S(=O)(O)c1ccc(N=Nc2ccc(N=Nc3ccc(/C=C/c4ccc(N=[N+]([O-])c5ccc(/C=C/c6ccc(N=Nc7ccc(N=Nc8ccc(S(=O)(=O)O)cc8)cc7)cc6S(=O)(=O)O)c(S(=O)(=O)O)c5)cc4S(=O)(=O)O)c(S(=O)(=O)O)c3)cc2)cc1
[1]
  TGI: > 100 µM
[2]
  TGI: > 100 µM
[9]
  TGI: > 100 µM
[3]
  TGI: > 100 µM
[4]
  TGI: > 100 µM
[5]
  TGI: > 100 µM
[10]
  TGI: > 100 µM
[6]
  TGI: > 100 µM
[11]
  TGI: > 100 µM
[7]
  TGI: > 100 µM
[8]
  TGI: > 100 µM
[12]
  TGI: > 100 µM

## Cc1cc(C)nc(NS(=O)(=O)c2ccc(Nc3c4ccccc4nc4c(C(=O)N5CCN(CCOS(C)(=O)=O)CC5)cccc34)cc2)n1
[1]
  TGI: > 100 µM
[2]
  TGI: > 100 µM
[9]
  TGI: > 100 µM
[3]
  TGI: > 100 µM
[4]
  TGI: > 100 µM
[10]
  TGI: > 100 µM
[6]
  TGI: > 100 µM
[11]
  TGI: > 100 µM
[7]
  TGI: > 100 µM
[8]
  TGI: > 100 µM
[12]
  TGI: > 100 µM

## NCCCCNCCCNC(=O)c1nc(-c2nc(CCN)sc2Cl)sc1Cl
[1]
  TGI: > 100 µM
[2]
  TGI: > 100 µM
[9]
  TGI: 52.5 µM
[3]
  TGI: > 100 µM
[4]
  TGI: > 100 µM
[5]
  TGI: 55.9 µM
[10]
  TGI: > 100 µM
[6]
  TGI: > 100 µM
[11]
  TGI: > 100 µM
[7]
  TGI: > 100 µM
[8]
  TGI: > 100 µM
[12]
  TGI: > 100 µM
